Measurements taken from patent US10653667B2, “Drug for preventing, treating or preventing metastasis of giant cell tumor that occurs in bone or soft parts, chondrosarcoma, or osteosarcoma, local injection for arterial embolization, and artificial bone” (NIPPON CHEMIPHAR CO., LTD, priority 2013, dated 2020).
“Also recorded” adds a separate entry of the source.

Key:
[1] = tested on: cultured cells of giant cell tumor of tendon sheath (GCTT); test: Suppression of cell proliferation of GCTT cultured cells (CCK-8); type: cell-based, human; conditions: drug at various concentrations, CCK-8 24 hours after addition
[2] = tested on: SW1353 cells; test: Suppression of cell proliferation of chondrosarcoma cell line SW1353 (CCK-8); type: cell-based, human; conditions: drug at various concentrations
Text: (§1) The H-EMC-SS cells were obtained from the Riken BioResource Center. As the SW1353 cells, those obtained from ATCC were used.

[3] = tested on: cultured cells of pigmented villonodular synovitis (PVNS); test: Suppression of cell proliferation of PVNS cultured cells (CCK-8); type: cell-based, human; conditions: for suppression of cell proliferation (absorbance at 450 nm): PVNS cells, drug at various concentrations, CCK-8 24 hours after addition
[4] = Solubility in DMSO; type: physicochemical; conditions: limited highest test concentration (lornoxicam 80 μm, ampiroxicam 20 μm)
[5] = tested on: H-EMC-SS cells; test: Suppression of cell proliferation of chondrosarcoma cell line H-EMC-SS (CCK-8); type: cell-based, human; conditions: drug at various concentrations
Text: The H-EMC-SS cells were obtained from the Riken BioResource Center.
as §1

[6] = tested on: GCTB cultured cells (case 1, case 2; GCT-1, GCT-2); test: Suppression of cell proliferation of GCTB cultured cells (Cell Counting Kit-8, WST assay); type: cell-based, human; conditions: drug at various concentrations, CCK-8 24 hours after addition
Experimental: Tissue Int., 75:71-77), repeatedly subcultured until there were only spindle-shaped cells, which state was gradually attained from the state that there were also multinucleated giant cells observed in an early stage, and then used for the following analysis. […] Zaltoprofen was added as a solution in DMSO (dimethyl sulfoxide) prepared at a concentration 1000 times higher than the final concentration, and the solution was added in a volume of 0.1% of the volume of the medium. The same shall apply to the other drugs used in the following examples. […]

[7] = tested on: SW1353 cells; test: Cell migration of human chondrosarcoma cell line SW1353; type: cell-based; conditions: 72 hours
Experimental: The analysis of cell migration was performed by using a 6-well plate of TPP according to the method described in Takeuchi A, et al., Cancer Science, 104:740-749, 2013 (Low molecular weight heparin suppresses receptor for advanced glycation end products-mediated expression of malignant phenotype in human fibrosarcoma cells). Cells of the human chondrosarcoma cell line, SW1353, were cultured in the same manner as that of Example 1 until they became sub-confluent, and the cells were delaminated in a width of 1 mm using a micropipette tip (200 μl). […] Then, area of the cells migrated to the region where the cells were delaminated was measured by using Image J software (http://rsb.info.nih.gov/ij/index.html) (FIGS. 73 and 74).

[8] = tested on: SW1353 cells; test: Cell invasion of SW1353 cells (Matrigel Invasion Chamber); type: cell-based, human; conditions: all set concentrations, concentration-dependent; 24 hours
Text: For the analysis of cell invasion, Matrigel™ Invasion Chamber (BD Bioscience, catalog number 354480), which uses Matrigel as the matrix, was used. […] FIGS. 76 and 77 show microphotographs of invaded cells fixed by immersion into a 4% paraformaldehyde solution, and stained with hematoxylin (magnification is 200 times). From the microphotographs of FIGS. 76 and 77, the patterns of the invaded cells can be understood.

[9] = tested on: synovial cells derived from rheumatism patients; conditions: cited from earlier work
[10] = tested on: SW1353 cells; test: Proliferation of SW1353 cells cultured beforehand with PPARγ siRNA or control siRNA; type: cell-based, human; conditions: 100 μM rosiglitazone; 24 hours
[11] = tested on: colon cancer; conditions: cited from earlier work
[12] = tested on: OST cells, human bone sarcoma-derived cultured cells; conditions: transdermally administered; after four weeks; cited from earlier work
[13] = tested on: PVNS; conditions: in vitro; cited from earlier work
[14] = all set concentrations, concentration-dependent

Structure (SMILES)	suppression of cell proliferation (absorbance at 450 nm) [1]	suppression of cell proliferation (absorbance at 450 nm) [2]	suppression of cell proliferation (absorbance at 450 nm) [3]	suppression of cell proliferation (absorbance at 450 nm) [5]	suppression of cell proliferation (live cell count, absorbance at 450 nm) [6]	activation of PPARγ [9]	apoptosis [9]	suppression of proliferation of the cells [9]	further results
CN1C(C(=O)Nc2ccccn2)=C(O)c2sc(Cl)cc2S1(=O)=O [lornoxicam]	suppressed proliferation	suppressed proliferation	suppressed proliferation	suppressed proliferation	suppressed proliferation				solubility in DMSO (dimethyl sulfoxide) [4]: low solubility
COc1ccc2c(c1)c(CC(=O)O)c(C)n2C(=O)c1ccc(Cl)cc1 [indomethacin]	suppressed proliferation	suppressed proliferation	suppressed proliferation	suppressed proliferation	suppressed in a drug concentration-dependent manner; also recorded: suppressed proliferation	activated PPARγ	caused apoptosis	suppress proliferation	suppression of cell migration of SW1353 cells [7, 14]: suppressed the cell migration; suppression of cell invasion of SW1353 cells [8]: suppressed the cell invasion
CN(CCOc1ccc(CC2SC(=O)NC2=O)cc1)c1ccccn1 (stereo not shown) [rosiglitazone]									suppression of proliferation of SW1353 cells [10]: about 61%
O=C(O)Cc1ccccc1Nc1c(Cl)cccc1Cl [diclofenac]	suppressed proliferation	suppressed proliferation	suppressed proliferation	suppressed proliferation	suppressed in a drug concentration-dependent manner; also recorded: suppressed proliferation	activated PPARγ	caused apoptosis	suppress proliferation	suppression of cell migration of SW1353 cells [7, 14]: suppressed the cell migration; occurrence of colon cancer ([11]; induced by repetitive administration of 1,2-dimethylhydrazine dihydrochloride to rats): prevented occurrence of colon cancer; amount of NF-κB protein in the large intestine ([11]; rats): reduced amount of NF-κB protein; amount of the PPARγ protein ([11]; rats): increased amount of the PPARγ protein; suppression of cell invasion of SW1353 cells [8]: suppressed the cell invasion
Cc1ccc(-c2cc(C(F)(F)F)nn2-c2ccc(S(N)(=O)=O)cc2)cc1 [celecoxib]									suppression of cell migration of SW1353 cells ([7]; 75 μM celecoxib): higher than 80%
CC(C(=O)O)c1cccc(C(=O)c2ccccc2)c1 (stereo not shown) [ketoprofen]						did not cause activation of PPARγ	did not cause	did not cause	tumor weight relative to placebo group [12]: 48%
Cc1c(C)c2c(c(C)c1O)CCC(C)(COc1ccc(CC3SC(=O)NC3=O)cc1)O2 (stereo not shown) [troglitazone]									suppression of cell migration of SW1353 cells ([7]; 100 μM troglitazone): about 65%
COc1ccc2c(c1)c(CC(=O)OCC(=O)O)c(C)n2C(=O)c1ccc(Cl)cc1 [acemetacine, acemetacin]	suppressed proliferation	suppressed proliferation	suppressed proliferation	suppressed proliferation	suppressed proliferation				
CC(=O)Nc1ccc(O)cc1 [acetaminophen]	suppressed proliferation	suppressed proliferation	suppressed proliferation	suppressed proliferation	suppressed in a drug concentration-dependent manner; also recorded: suppressed proliferation	did not cause activation of PPARγ	did not cause	did not cause	suppression of cell migration of SW1353 cells [7, 14]: suppressed the cell migration; suppression of cell invasion of SW1353 cells [8]: suppressed the cell invasion
CS(=O)(=O)Nc1ccc([N+](=O)[O-])cc1OC1CCCCC1 [NS-398]						did not activate PPARγ	did not cause apoptosis	suppressed proliferation	
COc1ccc(-c2noc(CC(=O)O)c2-c2ccc(OC)cc2)cc1 [mofezolac]	suppressed proliferation	suppressed proliferation	suppressed proliferation	suppressed proliferation	suppressed proliferation				
O=C(O)CCc1nc(-c2ccccc2)c(-c2ccccc2)o1 [oxaprozin]	suppressed proliferation	suppressed proliferation	suppressed proliferation	suppressed proliferation	suppressed proliferation	activated PPARγ	caused apoptosis	suppress proliferation	suppression of the proliferation at the highest measured concentration ([3]; oxaprozin 200 μm, cells of pigmented villonodular synovitis as printed, 400 μm or higher could not be measured): only slight suppression
COc1ccc2cc([C@H](C)C(=O)O)ccc2c1 [naproxen]	suppressed proliferation	suppressed proliferation	suppressed proliferation	suppressed proliferation	suppressed proliferation				
CCOC(=O)OC(C)OC1=C(C(=O)Nc2ccccn2)N(C)S(=O)(=O)c2ccccc21 (stereo not shown) [ampiroxicam]	suppressed proliferation	suppressed proliferation	suppressed proliferation	suppressed proliferation	suppressed proliferation				solubility in DMSO (dimethyl sulfoxide) [4]: low solubility
CCc1cccc2c3c([nH]c12)C(CC)(CC(=O)O)OCC3 (stereo not shown) [etodolac]	suppressed proliferation	suppressed proliferation	suppressed proliferation	suppressed proliferation	suppressed proliferation				
NC(=O)c1ncn([C@@H]2O[C@H](CO)[C@@H](O)[C@H]2O)c1O [mizoribine]									inhibition of proliferation of PVNS [13]: slightly inhibited proliferation
